Usually pIC50 stands for the negative decadic logarithm of the IC50, by convention in mol/L. What is called pKi is the negative decadic logarithm of the Ki, by convention in mol/L. Broadly, the Papp is the rate of passage across a membrane or cell layer, normalised by area and donor concentration. The term bioavailability denotes dose-corrected exposure relative to a reference, in per cent. Read a low bioavailability as little systemic uptake.

This is an account of results in patent US11612606B2, “8-aminoisoquinoline compounds and uses thereof” (priority 2018, dated 2023).

pIC50, pKi: −log10 of the molar value. Like-named read-outs stand apart in the source and are kept apart here. A value given as a limit tells only on which side of the number the result lay.

The test system of data set [1] is primary human pan T cells. Description: Human T-cell IL2 induction assay. The class given is cell-based. The protocol:
Assay Principle: Anti-CD3 and anti-CD28 activates TCR signaling in primary human pan T cells leading to IL-2 promoter induction. Secreted IL-2 in cell culture supernatant is detected by electrochemiluminescence using a capture antibody against IL-2 and an anti-IL-2 antibody labeled with SULFO-tag. Also see www.mesoscale.com for additional electrochemiluminescence technology information.
Assay Procedure: Incubate primary human pan T cells with varying concentrations of test compounds for 30 minutes in a humidified incubator at 37° C. and 5% CO2. Transfer cells to a plate pre-coated with a fixed concentration of anti-human CD3 (determined separately for each donor lot) and add soluble anti-human CD28 (final concentration=1 μg/ml). Stimulate cells in a humidified incubator at 37° C. and 5% CO2 for 4 hours. Transfer 25 μl of supernatant to a MSD single spot plate pre-coated with an anti-human IL-2 antibody. Incubate MSD plate overnight at 4° C. with gentle shaking. Wash MSD plate 4× with wash buffer. Add SULFO-tagged detection antibody at a 1:50 dilution and incubate at room temperature shaking for 2 hours. Wash MSD plate 4× with wash buffer and add 150 μl 2×MSD read buffer. Read on an MSD instrument. Normalize data to stimulated/untreated controls to calculate % activity at each concentration of compound.
Instrumentation: • Biomek FX for liquid handling (Beckman Coulter) • MSD SECTOR S 600 (Meso Scale Discovery)
Exemplary compounds of Formula (I) were tested in the human T-cell IL-2 induction assays.

Data set [2] has as its system phosphorylation of SLP-76 (S376) by HPK-1 in human Jurkat cells. Description: pSLP76 assay (sandwich ELISA, anti-CD3 stimulated Jurkat cells). The class given is cell-based. The settings on record: read-out: pSLP76 IC50. The protocol: Phospho-SLP76 (S376) is detected by sandwich ELISA using an anti-pSLP76(S376) capture antibody and a biotinylated anti-SLP76 detection antibody.
Incubate Jurkat cells with varying concentrations of test compounds for 30 minutes in a humidified incubator at 37° C. and 5% CO2. Add anti-CD3 DynaBeads at a 4:1 bead:cell ratio. Stimulate cells in a humidified incubator at 37° C. and 5% CO2 for 10 minutes. Add cold lysis buffer and incubate on a shaker at 4° C. for 30 minutes. Transfer cell lysates to a pre-blocked ELISA plate coated with capture antibody. Incubate at room temperature shaking for 2 hours. Wash ELISA plate 5× with wash buffer and add 25 μl of biotinylated detection antibody at a final concentration of 0.5 μg/ml. Incubate at room temperature shaking for 1 hour. Wash ELISA plate 5× with wash buffer and add 25 μl of streptavidin enzyme conjugate at a final dilution of 1:8000. Incubate at room temperature shaking for 20 minutes. Wash ELISA plate 5× with wash buffer and add 25 μl of TMB substrate solution. Incubate at room temperature in the dark shaking for 20 minutes. Add 25 μl of STOP solution and read on SoftMax Pro for absorbance at 450 nm.
Exemplary compounds of Formula (I) were tested in pSLP76 assays.

A short description of data set [3]: Hepatocyte stability assay. The class given is in vitro ADME. The settings on record: cryopreserved human hepatocytes (10 donor pool, suspension), scaled hepatic clearance, read-out: HHep Clearance. The protocol: (§1) Metabolic stability of compounds are assessed using a hepatocyte stability assay. Cryopreserved human hepatocytes from a 10 donor pool are quickly thawed at 37° C., suspended in prewarmed In VitroGRO™ HT Medium, and then centrifuged at 100×g at room temperature for 10 min. The supernatants are discarded, and cells are resuspended in 5 mL Dulbecco's Modified Eagle Medium (DMEM) medium. Cell viability in suspension is counted on a Hepatometer® Vision (Lonza, N.C.), and viable cells are then adjusted to […] in DMEM. Compounds are first diluted to 2 μM with DMEM medium, and then aliquots of 125 μL of drug-containing medium are transferred to 96-well non-coated plates. Incubation is initiated by the addition of 125 μL of hepatocyte suspension to yield a total incubation volume of 250 μL. Final concentration of each compound is 1 μM, and final cell density is 0.5×10^6 cells/mL. Incubations are conducted in a humidified incubator at 37° C. Aliquots of 50 μL incubation medium are taken out at different time intervals (0, 60, 120 and 180 min), and immediately mixed with 100 μL of ice-cold acetonitrile containing 50 nM propranolol (internal standard). Samples are then centrifuged at 10,000×g for 10 min, and 80 μL of supernatant is taken out and diluted with 160 μL of water prior to LC/MS-MS analysis.
(§2) Human hepatocyte stability was assessed for exemplary compounds of Formula (I) according to the above procedures.

For data set [4], the target named is HPK full length, T165E S171E (Homo sapiens (Human), UniProt Q92918, S171E/T165E). The experiment in a line: HPK1-FL HTRF enzymatic assay ("HTRF"). As to conditions: ATP 1 mM, read-out: HPK1 Ki. The class given is biochemical. The method in brief:
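Full-length HPK1 (T165E/S171E) was preincubated 30 min with compound, then reacted 60 min with biotin-SLP-76 and 1 mM ATP. Phospho-SLP-76 was detected by HTRF (Eu-anti-pSLP76 antibody, SA-XL665) after a further 60 min.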

Data set [5] is described as follows: Permeability assay in gMDCKI cells. As to conditions: dog, MDCK, apical-to-basolateral, 2-hour incubation, read-out: MDCK AB Papp. Type of data set: in vitro ADME, canine. The protocol:
(§3) Cell permeability of compounds of interest was assessed in the gMDCKI cell line, which is a modified MDCKI (Madin-Darby canine kidney) originally acquired from American Type Culture Collection (Manassa, Va.) and generated at Genentech. […] Test article was tested at 10 μM in the apical-to-basolateral (A-B) and basolateral-to-apical (B-A) directions. Test compound was dissolved in transport buffer consisting of Hank's balanced salt solution and […] (Invitrogen Corporation, Grand Island, N.Y.). Transepithelial electrical resistance (TEER) and lucifer yellow (LY) permeability were used to monitor monolayer integrity at the beginning and the end of the experiments, respectively. Test articles were analyzed by LC-MS/MS.
(§4) The efflux ratio (ER) is calculated as (Papp, B−A/Papp, A−B).
(§5) Cell permeability were assessed for exemplary compounds of Formula (I).

Data set [6] can be described thus: Pharmacokinetic study in rat. The class given is in vivo, Sprague Dawley rat. As to conditions: for bioavailability: male, Sprague Dawley, plasma. The protocol: Pharmacokinetic Study in Rat: Male Sprague Dawley rats obtained from Lingchang/Vital River Laboratory Animal Technology Co., Ltd., (Shanghai/Beijing, P.R. China) with body weight ranging between 200 g to 300 g were use in the PK studies. Group of 3 rats were given a 1 mg/kg intravenous bolus (IV) dose of the test article in solution formulation, and another group of 3 rats were given a 2 or 5 mg/kg oral (PO) dose of test article as a 0.5% methylcellulose with 0.2% Tween 80 (MCT) suspension or as a solution. Blood samples (250 μL, per time point) were collected serially via the catheter in femoral artery at 0.033, 0.083, 0.25, 0.5, 1, 2, 4, 6, and 8 hours after IV or PO administration from each of the rat. Blood samples were collected into pre-chilled tubes containing Potassium (K2) EDTA and centrifuged at 3,200 g for 10 minutes at 2 to 8° C. within 1 hour of collection to harvest plasma. Plasma samples were stored at −70° C. until LC/MS/MS analysis. Concentration in each plasma sample was determined by a non-validated LC/MS/MS. Data is acquired using multiple reaction monitoring (MRM) with specific transitions monitored for each compound.
Following PO administration, percent bioavailability (% F) was determined for each animal by dividing the dose normalized area under the plasma concentration-time curve, extrapolated to infinity (AUCinf) obtained following each PO dose by the mean dose normalized AUCinf of the animals dosed by IV injection. All PK parameters are presented as mean±standard deviation (SD).
Pharmacokinetic studies were conducted in rat for exemplary compounds of Formula (I).

Data set [7] deals with Cryopreserved human hepatocytes. Description: Hepatocyte stability assay. Type of data set: in vitro ADME. As to conditions: 1 μM, scaled hepatic clearance. The protocol:
as §1, §2

The next data set deals with gMDCKI cell line. Description: Permeability assay in gMDCKI cells. Type of data set: in vitro ADME, canine. The settings on record: apical-to-basolateral, 10 μM, 2-hour incubation. The protocol: as §3, §4, §5
The mark [8] stands for this setting: Homo sapiens, Jurkat cells, anti-CD3 stimulation.

HPK full length, T165E S171E, sequence (Q92918 whole entry T165E/S171E, looked up): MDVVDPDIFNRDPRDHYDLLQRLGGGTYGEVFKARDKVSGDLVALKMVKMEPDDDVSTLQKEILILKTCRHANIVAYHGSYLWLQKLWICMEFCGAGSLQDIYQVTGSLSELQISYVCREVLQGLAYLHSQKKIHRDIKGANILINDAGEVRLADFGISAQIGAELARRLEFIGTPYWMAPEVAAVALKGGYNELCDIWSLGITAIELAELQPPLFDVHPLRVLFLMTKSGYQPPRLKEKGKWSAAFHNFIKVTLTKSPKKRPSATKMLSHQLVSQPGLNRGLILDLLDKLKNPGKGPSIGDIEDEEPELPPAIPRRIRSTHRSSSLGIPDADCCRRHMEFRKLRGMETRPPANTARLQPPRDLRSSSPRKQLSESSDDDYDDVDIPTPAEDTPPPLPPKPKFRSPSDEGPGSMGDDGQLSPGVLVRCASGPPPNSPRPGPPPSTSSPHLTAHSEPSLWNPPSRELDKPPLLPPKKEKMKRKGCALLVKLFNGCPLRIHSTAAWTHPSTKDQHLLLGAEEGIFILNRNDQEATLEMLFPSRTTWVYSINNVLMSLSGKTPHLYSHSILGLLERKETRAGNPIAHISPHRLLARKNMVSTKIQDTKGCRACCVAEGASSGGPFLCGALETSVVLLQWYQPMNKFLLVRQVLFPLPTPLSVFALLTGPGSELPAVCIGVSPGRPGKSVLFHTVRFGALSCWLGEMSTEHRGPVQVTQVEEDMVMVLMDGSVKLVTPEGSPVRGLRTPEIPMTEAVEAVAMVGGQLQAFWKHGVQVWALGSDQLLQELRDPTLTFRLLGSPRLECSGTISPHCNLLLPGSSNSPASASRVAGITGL

Take `Cc1c(-c2cc3cc(NC(=O)O[C@@H]4CCC[C@H]4C#N)ncc3c(N)c2F)cnc2c1NCCO2` (single isomer, unassigned) [Compound 482a]: the “% IL-2 increase relative to untreated cells” value in data set [1] (assayed concentration 2.778 μM) worked out at 737%. In addition, the pIC50 in data set [2] (setting [8]) is 7.42. The CLhep predicted at 1 μM in data set [3] was 11 mL/min/kg. Moreover, in data set [4], the pKi was above 10.89. For the same compound, the Papp at 2 h, 10 μM in data set [5] came to 15 ×10⁻⁶ cm/s. In data set [6] (PO 5 mg/kg, MCT, pH = 2.5, Suspension), this compound had a bioavailability of 41%.

With `Cc1c(-c2cc3cc(NC(=O)O[C@H]4CCO[C@H]4C)ncc3c(N)c2F)cnc2c1NCCO2` (single isomer, unassigned) [Compound 510c], the “% IL-2 increase relative to untreated cells” value in data set [1] (assayed concentration 2.778 μM) is given as 700%. The pIC50 in data set [2] (Homo sapiens, Jurkat) is 7.21. In addition, the CLhep predicted at 1 μM in data set [3] was 8.7 mL/min/kg. In data set [4], the pKi is above 10.89. In data set [5], the Papp at 2 h, 10 μM was determined as 20 ×10⁻⁶ cm/s. The same compound had a bioavailability in data set [6] (PO 2 mg/kg, MCT, Suspension) of 28%.

Consider `Cc1c(-c2cc3cc(NC(=O)O[C@H]4C[C@H](C#N)C4)ncc3c(N)c2F)cnc2c1NCCO2` [Compound 484b, (1r,3r)-(3-Cyanocyclobutyl) N-[8-amino-7-fluoro-6-(8-methyl-2,3-dihydro-1H-pyrido[2,3-b][1,4]oxazin-7-yl)-3-isoquinolyl]carbamate], for which, in data set [1] (assayed concentration 2.778 μM), the “% IL-2 increase relative to untreated cells” value turned out to be 1782%. The pIC50 in data set [2] (setting [8]) was 7.59. The CLhep predicted at 1 μM in data set [3] is 7.9 mL/min/kg. In data set [4], the pKi is 10.82. Besides, in data set [5], the Papp at 2 h, 10 μM is 19 ×10⁻⁶ cm/s. In addition, the bioavailability in data set [6] (PO 5 mg/kg, 10% DMSO/60% PEG400/30% Water, Solution) came to 16%.

Take `Cc1c(-c2cc3cc(NC(=O)O[C@H]4COC[C@@H]4C)ncc3c(N)c2F)cnc2c1NCCO2` (single isomer, unassigned) [Compound 441b]: the “% IL-2 increase relative to untreated cells” value in data set [1] (assayed concentration 2.778 μM) amounted to 1158%. Also, the pIC50 in data set [2] (setting [8]) was 7.44. In addition, the CLhep predicted at 1 μM in data set [3] is 6.9 mL/min/kg. Moreover, the pKi in data set [4] is above 10.89. The Papp at 2 h, 10 μM in data set [5] came to 15 ×10⁻⁶ cm/s. Besides, in data set [6] (PO 2 mg/kg, 10/90 DMSO/MCT, Solution), the bioavailability is 30%.

For the compound `Cc1c(-c2cc3cc(NC(=O)O[C@H]4C[C@H](C(C)(C)O)C4)ncc3c(N)c2F)cnc2c1NCCO2` [Compound 574a, (1r,3r)-3-(2-Hydroxypropan-2-yl)cyclobutyl (8-amino-7-fluoro-6-(8-methyl-2,3-dihydro-1H-pyrido[2,3-b][1,4]oxazin-7-yl)isoquinolin-3-yl)carbamate], the “% IL-2 increase relative to untreated cells” value in data set [1] (assayed concentration 1.196 μM) was found to be 1634%. Moreover, the pIC50 in data set [2] (Jurkat cells, anti-CD3 stimulation) is 7.49. For the same compound, the “HHep Clearance” value in data set [7] was determined as 8.3 mL/min/kg. For the same compound, in data set [4], the pKi was 10.70. For the same compound, in the data set on gMDCKI cell line, the “MDCK AB Papp” value is 12 ×10⁻⁶ cm/s. Moreover, the “% F” value in data set [6] (PO 2 mg/kg, 10% DMSO/60% PEG400/30% Water, Solution) came out at 16%.

Take `CO[C@H]1COC[C@@H]1OC(=O)Nc1cc2cc(-c3cnc4c(c3C)NCCO4)c(F)c(N)c2cn1` (single isomer, unassigned) [Compound 546a]: the “% IL-2 increase relative to untreated cells” value in data set [1] (assayed concentration 8.33 μM) was 914%. Also, in data set [2] (setting [8]), the pIC50 is 7.21. Further, the CLhep predicted at 1 μM in data set [3] was 6.5 mL/min/kg. The pKi in data set [4] was above 10.89. Also, the Papp at 2 h, 10 μM in data set [5] is 10 ×10⁻⁶ cm/s. This compound displayed a bioavailability in data set [6] (PO 5 mg/kg, 10% DMSO/35% PEG400/55% Water, Solution) of 22%.
